The record followed here is patent publication US8410056B2, “Pro-oxidant anti-cancer compounds” (priority 2006, dated 2013).

Usually IC50 stands for the point on the concentration scale where inhibition reaches its midpoint. Higher therefore signals weaker potency in that assay.

The subject of the assay is cancer cells. Put plainly: IC50, killing of cancer cells in vitro. In kind it is cell-based. The following applies: approximately. The source says: FIG. 9. […] IC50: Concentration in micromolar that is needed of a particular drug to induce 50% killing of cancer cells in vitro. −log Kd: inverse log of the particular drug's binding affinity.
In FIG. 9, the inventors analysed the correlation between the binding affinities of the vitamin E analogues for the ubiquinone site and their biological activity in causing apoptosis of cancer cells. The result indicates a direct relationship between the binding affinity to the site and their ability to kill cancer cells. The differences observed between the docking and the list of results reflects the biological accessibility of the compounds reaching the complex II target site. Thus, the IC50 reflects not only the ability of the analogues to bind to the site, but also their ability to enter across the cell membrane and gain access to the mitochondrial matrix. […] The best comparison would be made by comparing the Autodock results with an enzyme assay using purified complex II kits commercially available (MS201 COMPLEX II IMMUNOCAPTURE KIT MitoScience LLC, 1850 Millrace Drive, Suite 3A, Eugene, Oreg. 97403, USA, http://www.mitosciences.com).

With `Cc1c(C)c2c(c(C)c1OC(=O)CCC(=O)O)CC[C@@](C)(CCC[C@H](C)CCC[C@H](C)CCCC(C)C)O2` [Compound 1, α-tocopheryl succinate], the IC50 is 40 to 50 µM.
